Measured values: US20200283734A1, “REPROGRAMMING OF A DIFFERENTIATED CELL TO AN UNDIFFERENTIATED CELL USING EXOSOME” (AGENCY FOR SCIENCE, TECHNOLOGY AND RESEARCH, priority 2017, published 2020)

What was measured:
A431 EX-iCSCs = assay: Drug resistance assay (Alamar Blue cell viability), A431; type: cell-based; conditions: A431 EX-iCSCs (FIG. 16)
Procedure: (§1) H7-exosome treated and non-treated A431 and MCF7 cancer cells were seeded at a density of 3×10^3 cells per well in a 96-well plate, in their respective medium. The anticancer drugs, cisplatin, doxorubicin and sunitinib were then added in concentration series ranging from 0.1 to 1000, 0.001 to 10, and 0.1 to 1000 μg/mL, respectively. After time periods of 24, 48 and 72 hours, the cells were subjected to an Alamar Blue assay for cell viability.
(§2) Drug resistance has been associated with stem cell-like traits in cancer cells. The MCF7 and A431 cell lines were treated with exosomes to induce EX-iCSCs, following which they were subjected to viability (Alamar Blue) assays (FIG. 16, FIG. 17).

MCF7 EX-iCSCs = assay: Drug resistance assay (Alamar Blue cell viability), MCF7; type: cell-based; conditions: for drug resistance characteristics of EX-iCSCs towards cancer drugs: MCF7 EX-iCSCs (FIG. 17)
Procedure: as §1, §2

SMILES	drug resistance characteristics of EX-iCSCs towards cancer drugs (A431 EX-iCSCs)	drug resistance characteristics of EX-iCSCs towards cancer drugs (MCF7 EX-iCSCs)	viability of exosome-treated cells under drug compared to non-treated cells (MCF7 EX-iCSCs; MCF7, H7-exosome treated, all time points (24, 48 and 72 hours))
N.N.[Cl][Pt][Cl] [cisplatin]	showed drug resistance characteristics	showed drug resistance characteristics	
COc1cccc2c1C(=O)c1c(O)c3c(c(O)c1C2=O)C[C@@](O)(C(=O)CO)C[C@@H]3O[C@H]1C[C@H](N)[C@H](O)[C@H](C)O1 [doxorubicin]	showed drug resistance characteristics	showed drug resistance characteristics	significantly higher viability
